Experimental data: paper PMC10702053, “Design, synthesis, and characterization of novel system xC^− transport inhibitors: inhibition of microglial glutamate release and neurotoxicity” (Journal of Neuroinflammation, 2023)
Entries after “also recorded” stand apart in the source; their conditions may differ. Where two headings read alike, the source gives them in different places.

Tests used:
[1] = molecular target: T1, SxC^− transporter (system xC^− cystine-glutamate antiporter) (Rattus norvegicus, UniProt A0A8I6AB70); test: Microglial glutamate release assay (LPS-activated primary microglia); assay type: cell-based
T1 construct: endogenous in cells
Method: Primary cultures of rat microglia were established as described previously. Microglia were seeded at 375,000/cm^2 in 96-well plates with minimal essential medium with Earle’s salts (MEM) containing 10% fetal bovine serum (FBS). After an overnight plating, the cultures were washed twice with serum-free MEM, and then a third volume was applied containing test substances at the indicated concentrations; MEM contains 100 μM (Cys)2. Immediately thereafter, lipopolysaccharide (LPS) was added to some wells at 100 ng/ml. This concentration was selected for this particular lot of LPS as the concentration producing a slightly submaximal response (i.e., 2–5% below the maximum). After 18 h, 50 μl of medium was transferred from each well to a black, opaque-bottomed 96-well plate and combined with 50 μl of assay reagent from a Amplex® Red Glutamic Acid Assay kit (ThermoFisher). A standard curve was generated with a range of concentrations of L-glutamate (monosodium salt). The assay reagent contained 0.25 U/ml horseradish peroxidase, 0.08 U/ml L-glutamate oxidase, 0.5 U/ml L-glutamate/pyruvate transaminase, and 200 μM L-alanine. After 30 min, fluorescence was measured in a Molecular Devices SpectraMax 3 with excitation at 550 nm and emission at 590 nm; values were interpolated into the standard curve. The microglial medium was also assayed for nitric oxide using Griess reagent to confirm that none of the experimental compounds was a general inhibitor of microglial activation. We also considered whether any compound was toxic to microglia. The microglia remaining in the 96-well plates were combined with 3-(4,5-dimethylthiazol-2-yl)-2,5-diphenyl-2H-tetrazolium bromide (MTT) at a final concentration of 125 μg/ml (in MEM/FBS) and incubated for 30 min at 37 °C and 5.5% CO2. After removal of the medium, 100 μl of dimethyl sulfoxide (DMSO) was added to dissolve the formazan crystals, and absorbance at 540 nm was measured in the SpectraMax 3; the mean background obtained in wells containing DMSO alone was subtracted from each experimental value.
Data were analyzed in GraphPad Prism 9.5.1. Nonlinear regression was performed on the glutamate release assay data to derive IC50 values and the graphed plot lines. ANOVA indicated post hoc tests were applied to dosimetric data; P < 0.05 was considered significant.
Fig. 2 Microglial Glu release assay. Rat primary microglia were activated with 100 ng/ml LPS alone or immediately following application of the indicated concentrations of test substances. After 18 h in the presence of LPS, an aliquot of medium was assayed for Glu via a […]. A First generation of compounds was created by simply varying the position of a methyl group around an aromatic ring, comparing activity to 3,5-DBT. B Additional modifications were evaluated, including several that simply extend the size of the structure hypothesized to fit into the hydrophobic pocket of the SxC^− transporter. Values are represented relative to the Glu detected in cultures treated with LPS alone; each data point represents a mean of 4 cultures. Nonlinear regression was performed to provide the plot lines

[2] = Solubility in aqueous media (observation); assay type: physicochemical
primary cortical neurons = test: Neurotoxicity assay: microglia transwell / cortical neuron coculture, MTT; assay type: cell-based, rat; details: microglia treated with compound + LPS 100 ng/ml, 1 h, then 18 h with cortical neurons
Method: Primary cultures of rat cortical neurons were established as described previously; incorporation of both a serum-free medium and an intermittent treatment with cytosine arabinoside results in cultures that are among the purest neuronal primary cultures available. The cultures were seeded in 24-well plates, and 8 days later primary microglia were plated in transwell inserts (12-mm diameter) at 375,000/cm^2, washed to serum-free MEM, and treated with test substances followed immediately by LPS (100 ng/ml). After 1 h, the inserts were placed into the wells of the neuronal cultures. After an additional 18 h, the inserts were removed, and neuronal survival was evaluated by MTT assay as described above. Values are represented relative to the MTT signal produced in cultures exposed to untreated microglia.
Fig. 6 35DPTA7 and 35DPTSA12 reduced the neurotoxicity of activated microglia. Primary microglia were plated on permeable membranes in basket-type cell-culture inserts. Some cultures were treated with the indicated concentrations of 35DBTA7 or 35DBTSA12, followed immediately by application of LPS (100 ng/ml); some cultures were untreated and some received LPS alone. After 1 h, the inserts were placed into wells containing primary cortical neurons. After an additional 18 h, neuronal survival was determined by MTT assay. […]

[3] = molecular target: T1, SxC^− transporter (system xC^− cystine-glutamate antiporter); test: Cystine uptake assay (selenocystine) in LPS-activated primary microglia; assay type: cell-based; details: LPS 100 ng/ml 15 h, selenocystine uptake 30 min, 0.03-300 μM
Method: Cystine uptake was measured essentially as per Shimomura et al. using the Cystine Uptake Assay Kit (DOJINDO). Primary microglia were seeded as per glutamate release assays, and some cultures were treated the following day with 100 ng/ml LPS. After 15 h, the cultures were washed twice with Hank’s balanced salt solution (HBSS) and then incubated 5 min at 37 °C in HBSS containing fresh LPS and test substances at the indicated concentrations. The cultures were then exposed to HBSS containing selenocystine (DOJINDO) for 30 min at 37 °C, after which they were washed three times with ice-cold phosphate-buffered saline and then fixed in 50 μl methanol. A detection buffer comprising fluorescein O,O’-diacrylate and reducing agent (DOJINDO) was then added, and the plate was sealed and incubated for 30 min at 37 °C. Reaction product was then assayed in the Molecular Devices SpectraMax 3 with excitation at 490 nm and emission at 535 nm. Blanks consisted of wells containing only cells that had been washed, fixed with methanol, and incubated with the detection buffer, and the values from these wells were subtracted from the experimental values.
Fig. 5 35DPTA7 and 35DPTSA12 inhibit cystine uptake in microglia. Rat primary microglia were activated with 100 ng/ml LPS alone for 15 h, then the indicated concentrations of test substances were applied during application of selenocystine. […]

[4] = Light sensitivity (observation); assay type: physicochemical
[5] = rat primary microglia, LPS 100 ng/ml, 18 h
[6] = rat primary microglia, LPS 100 ng/ml, 18 h, nonlinear regression in GraphPad Prism, read-out: IC50 ± SEM, inhibition of microglial Glu release

T1 sequence (A0A8I6AB70 1-502): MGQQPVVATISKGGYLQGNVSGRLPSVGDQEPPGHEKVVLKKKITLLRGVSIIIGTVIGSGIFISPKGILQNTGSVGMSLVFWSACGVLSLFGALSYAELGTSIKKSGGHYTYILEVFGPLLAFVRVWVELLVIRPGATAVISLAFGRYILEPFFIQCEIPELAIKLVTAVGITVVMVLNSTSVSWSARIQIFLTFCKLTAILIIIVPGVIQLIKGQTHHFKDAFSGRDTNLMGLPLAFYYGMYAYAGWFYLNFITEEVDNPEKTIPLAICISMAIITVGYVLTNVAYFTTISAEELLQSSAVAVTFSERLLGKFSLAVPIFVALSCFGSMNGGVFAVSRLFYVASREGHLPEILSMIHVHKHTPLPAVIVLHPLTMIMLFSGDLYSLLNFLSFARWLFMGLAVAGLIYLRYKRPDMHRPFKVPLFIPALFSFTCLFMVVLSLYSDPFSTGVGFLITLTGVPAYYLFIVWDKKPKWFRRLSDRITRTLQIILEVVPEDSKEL
T1 sequence (Q794F9 whole entry partner): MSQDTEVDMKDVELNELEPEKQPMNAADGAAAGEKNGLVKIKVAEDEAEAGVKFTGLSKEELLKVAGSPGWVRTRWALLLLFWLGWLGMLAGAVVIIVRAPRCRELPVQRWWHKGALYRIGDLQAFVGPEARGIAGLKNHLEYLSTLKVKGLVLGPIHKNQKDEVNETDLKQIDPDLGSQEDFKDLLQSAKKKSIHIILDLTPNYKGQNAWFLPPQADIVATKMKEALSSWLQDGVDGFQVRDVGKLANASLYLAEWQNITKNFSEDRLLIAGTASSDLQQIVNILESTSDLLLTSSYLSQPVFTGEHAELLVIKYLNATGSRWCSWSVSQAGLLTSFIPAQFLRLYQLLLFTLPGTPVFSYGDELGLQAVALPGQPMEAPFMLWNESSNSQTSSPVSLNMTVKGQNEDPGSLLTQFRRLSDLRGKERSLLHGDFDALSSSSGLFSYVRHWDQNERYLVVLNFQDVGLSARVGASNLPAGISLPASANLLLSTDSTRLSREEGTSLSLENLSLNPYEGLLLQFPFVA

Row | Inhibition of SxC^− / microglial Glu release (in words) [1, 5] | IC50 [1, 6] | SMILES | further results
1 | completely inactive |  | N[C@@H](Cc1nc(I)[nH]c1I)C(=O)O [2,5-DIH, 2,5-diiodohistidine] | 
2 |  | 5.79 ± 3.96 µM | Cc1cccc(C(=O)N[C@@H](Cc2cc(Br)c(O)c(Br)c2)C(=O)O)c1 [35DBTA2] | 
3 |  | 25.5 ± 4.59 µM | CCC(=O)N[C@@H](Cc1cc(Br)c(O)c(Br)c1)C(=O)O [35DBTA5] | 
4 |  | 1.03 ± 0.44 µM | Cc1ccccc1C(=O)N[C@@H](Cc1cc(Br)c(O)c(Br)c1)C(=O)O [35DBTA1] | 
5 |  | 0.665 ± 0.127 µM | N[C@@H](Cc1cc(I)c(O)c(I)c1)C(=O)O [3,5-DIT] | Light sensitivity [4]: exceedingly light sensitive
6 | greatest potency | 0.159 ± 0.0244 µM | Cc1ccc(C(=O)N[C@@H](Cc2cc(Br)c(O)c(Br)c2)C(=O)O)cc1 [35DBTA3] | 

The next lines start with the compound.

Row | SMILES | Inhibition of SxC^− / microglial Glu release (in words) [1, 5] | IC50 [1, 6] | further results
7 | O=C(N[C@@H](Cc1cc(Br)c(O)c(Br)c1)C(=O)O)c1ccc(-c2ccc(-c3ccccc3)cc2)cc1 [35DBTA8] | quite effective | 0.172 ± 0.0056 µM | Solubility in water / aqueous solutions (in words) [2]: poorly soluble; Solubility of the disodium salt (carboxylate and phenoxide) in aqueous media ([2]; disodium salt): poorly soluble
8 | O=C(N[C@@H](Cc1cc(Br)c(O)c(Br)c1)C(=O)O)c1ccc(-c2ccccc2)cc1 [35DBTA7] | quite effective | 1.61 ± 0.377 µM | Neuronal survival (MTT) in presence of LPS-activated microglia (in words) (primary cortical neurons): elevated the survival signal; also recorded: quite effective; Inhibition of cystine uptake into microglia (in words) [3]: dose-dependent inhibition
9 | N[C@@H](Cc1cc(Br)c(O)c(Br)c1)C(=O)O [3,5-DBT, 3,5-dibromotyrosine] | potent inhibition |  | IC50 [1]: 3.49 ± 0.779 µM; Solubility in water / aqueous solutions (in words) [2]: high solubility in water as a salt
10 | O=C(O)[C@H](Cc1cc(Br)c(O)c(Br)c1)NC(=O)C(F)(F)F [35DBTA6] | trend toward inhibitory properties at low concentrations but produced a reversal of that trend above 3 μM |  | 
11 | N[C@@H](Cc1ccc(O)cc1)C(=O)O [Tyr, L-tyrosine, reference compound] | does not possess any inhibitory properties |  | 
